Assay results as given in US20060025485A1, “Hydroxybenazamide compounds for treatment of cancer” (priority 2004, published 2006).
Entries after “also recorded” stand apart in the source; their conditions may differ.

Tests used:
[1] = tested on: H727 cells; assay: Drug toxicity assay, propidium iodide exclusion, H727 cells; type: cell-based, human
Protocol: (§1) Drug Toxicity Assay. Briefly, cells were trypsinized and plated in a 6-well plate at 1-2×10^6 in triplicate and allowed to adhere overnight. […] As a control, DMSO was added. After incubation, the media was removed and cells were trypsinized and added to removed media. Cells were incubated on ice and 2.5 μg/ml Propidium Iodide (Sigma, St. Louis, Mo.) was added five minutes before flow cytometry (Ballestrero et al., 2004). Data was acquired using a FACSCalibur benchtop flow cytometer (Becton Dickenson, San Jose, Calif.) using CellQuest acquisition and analysis software.

[2] = as above; type: cell-based, human; details: human, 500 μM, 2 days, compared to native H727 cells, read-out: viable cells by PI exclusion
Protocol: as §1

[3] = tested on: MiaPaCa-2; assay: MiaPaCa-2 MTT Assay; type: cell-based; details: MiaPaCa-2, three concentrations
[4] = tested on: Chromogranin A; assay: Western analysis of CgA, H727 cells; type: cell-based, human
Protocol: (§2) ZM 336372 treatment. H727 and BON cells were plated at 50-60% confluence in 100 mm cell culture dishes and incubated overnight.
(§3) Western blot analysis. Cellular extracts were prepared and quantified by BCA protein assay kit (Pierce, Rockford, Ill.) as previously described (Sippel et al., 2003). 30-50 μg of denatured proteins from each sample underwent electrophoresis on a SDS-polyacrylamide gel and transferred to a nitrocellulose membranes (Schleicher and Schuell, Keene, N.H.). Membranes were blocked for 1 hr in milk solution (1×PBS, 5% non-fat dry milk, 0.05% Tween-20) and then incubated at 4° C. overnight with primary antibodies. The following primary antibody dilutions were used: phospho-ERK 1/2 (1:1,000); phospho-MEK (1:1,000); phospho-Raf-1 (Serine338) (1:1,000); p21 and p18, (1:1,000); (Cell Signal Technology, Beverly, Mass.), Chromogranin A (1:2,000; Zymed Laboratories, San Francisco, Calif.); MASH-1 (1:1000, BD Pharmingen) and G3PDH (1:10,000; Trevigen, Gaithersburg, Md.). After primary antibody incubation, membranes were washed 3×5 min in PBS-T wash buffer (1×PBS, 0.05% Tween 20). Then the membranes were incubated with either 1:2,000 dilution of goat anti-rabbit or goat anti-mouse secondary antibody (Cell Signal Technology, Beverly, Mass.) depending on the source of the primary antibody for 1 hr at room temperature. Membranes were washed 3×5 min in PBS-T wash buffer and developed by Immunstar™ HRP (Bio-Rad Laboratories, Hercules, Calif.) according to the manufacturer's directions. For the detection of hASH1 protein, membranes were developed with SuperSignal West Femto chemiluminescence reagent (Pierce).

[5] = tested on: Raf-1/MEK/ERK; assay: Western analysis of Raf-1 pathway activation, H727 cells; type: cell-based, human
Protocol: H727 and BON cells were plated at 50-60% confluence in 100 mm cell culture dishes and incubated overnight.
as §3

[6] = tested on: pMEK and p-MAPK; assay: Western blot of pMEK and p-MAPK, HepG2 cells; type: cell-based
From the text: (§4) The results were assay using standard MTT, Western blot and cytoxocity assays.

[7] = tested on: Panc-1 cells; assay: cell morphology after 9-day treatment, Panc-1 cells; type: cell-based; details: Panc-1, 100 μM, 9-day cycle
From the text: as §4

[8] = tested on: hASH1; assay: Western analysis of hASH1, BON cells; type: cell-based, human; details: 20 μM and 100 μM, 2 days
Protocol: as §2
as §3, with “Membranes were washed 3×5 min in PBS-T wash buffer and developed by Immunstar™ HRP (Bio-Rad Laboratories, Hercules, Calif.) according to the manufacturer's directions. For the detection of hASH1 protein, membranes were developed with SuperSignal West Femto chemiluminescence reagent (Pierce).” left out

[9] = Drug toxicity assay, propidium iodide exclusion, BON cells; type: cell-based; details: human, 63 to 500 μM, read-out: viable cells by PI exclusion
Protocol: as §1

[10] = tested on: HepG2 cells, a hepatocellular cancer cell line; assay: cell morphology after 9-day treatment, HepG2 cells; type: cell-based
From the text: as §4

[11] = tested on: BON pancreatic carcinoid cells; assay: MTT cell proliferation assay, BON cells; type: cell-based, human; details: 100 μM, to day 10, versus DMSO
Protocol: MTT Cell Proliferation Assay. […] Cells were trypsinized and plated in triplicate to 24 wells plates and allowed to adhere overnight. […] Cells were incubated and maintained with change of treatments at 2 days. Cell growth rates were analyzed after the addition of MTT reagent to the cultured cells following manufacturer's instructions. Absorbance was determined using spectrophotometer at a wave length of 540 nm.

[12] = tested on: Panc-1; assay: Panc-1 MTT Assay; type: cell-based; parameters: dose or concentration left out as unconfirmed; details: Panc-1, three concentrations
[13] = tested on: p21; assay: Western analysis of cell cycle inhibitor p21, H727 cells; type: cell-based, human; details: 20 μM and 100 μM, 2 days
Protocol: as §2
as §3, with “Membranes were washed 3×5 min in PBS-T wash buffer and developed by Immunstar™ HRP (Bio-Rad Laboratories, Hercules, Calif.) according to the manufacturer's directions. For the detection of hASH1 protein, membranes were developed with SuperSignal West Femto chemiluminescence reagent (Pierce).” left out

[14] = tested on: BON cells
Protocol: Cells tested (H727 and BON) were harvested by trypsinization and plated at a cell density of 3,000 cells/well of each microtiter plate. Cells were grown for 4 hrs at 37° C., with 5% CO2 in a humidified incubator to allow cell attachment to occur before compound addition. […] 10 μl of each compound stock was added to duplicate microtiter plates for each cell line. The final concentration of DMSO in all wells was 1%. To test 200 μM, 2% DMSO was added to each well. Data was compared to the effect of 2% DMSO. All compounds were tested in duplicate. Cells were incubated with the test compounds for 72 hrs before reading the assay. Then processing and calculation were performed according to manufacturer's directions for Cell Titer Glo Assay (Promega, Madison, Wis.).

[15] = tested on: H727 pulmonary carcinoid cells; assay: cell culture pictures of H727 cells; type: cell-based, human; details: 100 μM, days 2, 4 and 6, versus DMSO
Protocol: Cell culture. Human pulmonary carcinoid cells (NCI-H727) were obtained from American Type Culture Collection (Manassas, Va.) and human pancreatic carcinoid tumor cells, BON a generous gift of Drs. Evers and Townsend (Parekh et al., 1994), were maintained in RPMI 1640 and D-MEM-F12 media (Life Technologies, Rockville, Md.) respectively supplemented with 10% Fetal Bovine Serum (Sigma, St. Louis, Mo.), 100 IU/ml penicillin and 100 μg/ml streptomycin (Life Technologies) in a humidified atmosphere of 5% CO2 in air at 37° C. The maintenance of BON-raf cells and the activation of Raf-1 were followed as described previously (Sippel et al., 2003; Sippel and Chen, 2002; McMahon, 2001).
as §2

[16] = tested on: hASH1; assay: Western analysis of hASH1, H727 cells; type: cell-based, human
Protocol: as §2
as §3, with “Membranes were washed 3×5 min in PBS-T wash buffer and developed by Immunstar™ HRP (Bio-Rad Laboratories, Hercules, Calif.) according to the manufacturer's directions. For the detection of hASH1 protein, membranes were developed with SuperSignal West Femto chemiluminescence reagent (Pierce).” left out

[17] = tested on: HT-29 cells, a colon cancer cell line; assay: cell morphology after 9-day treatment, HT-29 cells; type: cell-based
From the text: as §4

For `Cc1ccc(NC(=O)c2cccc(N(C)C)c2)cc1NC(=O)c1ccc(O)cc1` [ZM336372, N-[5-(dimethyl-aminobensamido)-2-methylphenyl]-4-hydroxybenzamide], the cytolysis ([1]; 20-100 μM) was “less than 20%”, the “viability by PI exclusion” value ([1]; 20 to 100 μM, 2 days, compared to DMSO) was “significant viability was maintained” and the viability at 2 days, 500 µM [2] was 40 to 50%. For the same compound, the “cellular proliferation (MTT)” value [3] was “inhibition at the highest concentration; also recorded: reduction of cellular proliferation”, the CgA level ([4]; 20 μM and 100 μM, 2 days) was “reduction in both CgA and hASH1; also recorded: dose dependent decrease” and the “time of earliest detected reduction of CgA” value ([4]; 100 μM, 10 minutes to 48 hours) was 1 h. The “time of greatest comparative loss of CgA” value ([4]; 100 μM, 10 minutes to 48 hours) was 48 h, the “CgA level over days” value ([4]; 100 μM, days 2, 4 and 6) was “decrease in chromogranin; also recorded: CgA depletion was maintained to 6 days; also recorded: persistent reduction of CgA to day 6” and the “phosphorylated ERK 1/2 (pERK, pMAPK)” value ([5]; 20 μM and 100 μM, 2 days) was “elevated phosphorylated MAPK; also recorded: activation of MEK 1/2 and ERK 1/2; also recorded: dose dependent increases”. For the same compound, the “phosphorylated MEK 1/2 (pMEK)” value ([5]; 20 μM and 100 μM, 2 days) was “activation of MEK 1/2 and ERK 1/2; also recorded: dose dependent increases”, the “phosphorylated Raf-1 at serine 338 (pRaf-1)” value ([5]; 20 μM and 100 μM, 2 days) was “phosphorylated at serine 338; also recorded: dose dependent increases” and the “phosphorylated MEK 1/2 over time” value ([5]; 100 μM, days 2, 4 and 6) was “prolonged; also recorded: greater than controls out to 6 days”. For the same compound, the p-MAPK level [6] was “increase in the levels of both pMEK and p-MAPK”, the pMEK level [6] was “increase in the levels of both pMEK and p-MAPK” and the cell death [7] was “significant cell death”. The hASH1 level [8] was “reduction in both CgA and hASH1; also recorded: dose dependent decrease”, the viability at 2 days [9] was about 70% and the cell death ([10]; HepG2, 100 μM, 9-day cycle) was “significant cell death”. The “cell growth in culture” value ([10]; HepG2, 50 microM, day 9, versus DMSO control) was “clear difference in cell growth”, the cytopathology ([10]; HepG2, low concentrations, 9-day cycle) was “cytopathology at low concentrations” and the “BON cell proliferation/metabolism (MTT)” value [11] was “lack of cell metabolism; also recorded: clear suppression of growth; also recorded: growth suppression occurred as early as day 4 and was maintained out to day 10; also recorded: inhibited”. For the same compound, the “cellular proliferation (MTT)” value [12] was “inhibition at the highest concentration; also recorded: clear decrease”, the p21 expression [13] was “induced; also recorded: significant induction” and the “IC50 (cytotoxicity)” value [14] was “did not produce enough cellular cytotoxicity to estimate an IC50”. The “growth of H727 cells in culture” value [15] was “never reached confluence; also recorded: clear difference in growth; also recorded: paucity of cells reaching confluence”, the hASH1 level ([16]; 20 μM and 100 μM, 2 days) was “reduction in both CgA and hASH1; also recorded: dose dependent decrease” and the “time of first recognized reduction of hASH1” value ([16]; 100 μM, 10 minutes to 48 hours) was 1 h. The cell death ([17]; HT-29, 100 μM, 9-day cycle) was “significant cell death”, the “number of cells in culture” value ([17]; HT-29, 50 microM, day 9, versus control) was “dramatic difference in the number of cells present at day 9” and the cytopathology ([17]; HT-29, low concentrations, 9-day cycle) was “cytopathology at low concentrations”.
